Assays:
Coagulation factor XI [1] = target: T1, Coagulation factor XI (Homo sapiens, UniProt P03951); assay: Inhibition of human Factor XIa using Boc-Glu(OBzl)-Ala-Arg-AMC assessed as AMC release preincubated for 15 mins followed by substrate addition and measured after 10 mins by microplate fluorescence reader analysis
Plasma kallikrein [2] = target: T2, Plasma kallikrein (Homo sapiens, UniProt P03952); assay: Inhibition of human PKa using H-Pro-Phe-Arg-AMC as substrate incubated for 15 mins by fluorescence reader analysis
T2 sequence (P03952 20-390 limits assumed): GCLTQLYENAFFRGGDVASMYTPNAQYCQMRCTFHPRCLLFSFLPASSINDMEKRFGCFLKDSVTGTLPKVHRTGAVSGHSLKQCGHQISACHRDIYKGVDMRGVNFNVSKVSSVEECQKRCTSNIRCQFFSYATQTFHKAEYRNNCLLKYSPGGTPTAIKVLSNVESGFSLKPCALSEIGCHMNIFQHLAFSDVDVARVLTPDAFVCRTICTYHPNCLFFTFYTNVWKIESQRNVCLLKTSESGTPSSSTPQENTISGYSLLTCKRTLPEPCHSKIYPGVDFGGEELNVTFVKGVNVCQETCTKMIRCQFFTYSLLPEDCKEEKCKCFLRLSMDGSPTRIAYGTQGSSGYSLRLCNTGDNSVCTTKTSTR
T2 sequence (P03952 391-638 limits assumed): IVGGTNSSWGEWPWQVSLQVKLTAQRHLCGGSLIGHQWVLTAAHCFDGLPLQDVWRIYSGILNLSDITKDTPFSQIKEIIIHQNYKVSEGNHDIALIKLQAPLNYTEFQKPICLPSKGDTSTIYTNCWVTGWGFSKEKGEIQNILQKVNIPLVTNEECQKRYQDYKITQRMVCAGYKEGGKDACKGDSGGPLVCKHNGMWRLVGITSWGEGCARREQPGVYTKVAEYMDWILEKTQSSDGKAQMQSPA

Plasma [3] = assay: Anticoagulant activity in citrated human pooled plasma assessed as prolongation of prothrombin time incubated for 3 mins by PT reagent based semi-automated coagulometric analysis; format: functional; conditions: 0.05 h
Plasma [4] = assay: Anticoagulant activity in citrated human pooled plasma assessed as prolongation of activated partial thromboplastin time incubated for 5 mins by aPTT reagent based semi-automated coagulometric analysis; format: functional
Coagulation factor X = Coagulation factor X (Homo sapiens, UniProt P00742); assay: Inhibition of human Factor Xa using Boc-Ile-Glu-Gly-Arg-AMC as substrate incubated for 15 mins by fluorescence reader analysis
Sequence of Coagulation factor X (P00742 41-179 limits assumed): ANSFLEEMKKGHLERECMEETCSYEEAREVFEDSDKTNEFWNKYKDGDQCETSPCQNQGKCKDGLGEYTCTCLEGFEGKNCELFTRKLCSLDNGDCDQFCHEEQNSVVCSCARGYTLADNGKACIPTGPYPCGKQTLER
Sequence of Coagulation factor X (P00742 235-488 limits assumed): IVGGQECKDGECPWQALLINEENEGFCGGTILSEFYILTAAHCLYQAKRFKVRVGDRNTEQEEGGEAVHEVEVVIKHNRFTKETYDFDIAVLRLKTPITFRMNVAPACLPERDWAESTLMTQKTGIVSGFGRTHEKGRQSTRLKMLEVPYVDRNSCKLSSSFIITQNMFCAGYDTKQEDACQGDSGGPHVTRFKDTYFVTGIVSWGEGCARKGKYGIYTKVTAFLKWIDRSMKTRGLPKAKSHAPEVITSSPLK

Trypsin = Trypsin (Homo sapiens, UniProt P07477+P07478+P35030); assay: Inhibition of human trypsin using Boc-Ile-Glu-Gly-Arg-AMC as substrate incubated for 15 mins by fluorescence reader analysis; format: protein assay
Prothrombin = Prothrombin (Homo sapiens, UniProt P00734); assay: Inhibition of human thrombin using Boc-Asp(OBzl)-Pro-Arg-AMC as substrate incubated for 15 mins by fluorescence reader analysis
Homo sapiens [5] = species: Homo sapiens; assay: Selectivity ratio of IC50 for human trypsin using Boc-Ile-Glu-Gly-Arg-AMC as substrate to IC50 for human Factor XIa using Boc-Glu(OBzl)-Ala-Arg-AMC
Homo sapiens [6] = species: Homo sapiens; assay: Selectivity ratio of IC50 for human Factor Xa using Boc-Ile-Glu-Gly-Arg-AMC as substrate to IC50 for human Factor XIa using Boc-Glu(OBzl)-Ala-Arg-AMC
Homo sapiens [7] = species: Homo sapiens; assay: Selectivity ratio of IC50 for human thrombin using Boc-Asp(OBzl)-Pro-Arg-AMC as substrate to IC50 for human Factor XIa using Boc-Glu(OBzl)-Ala-Arg-AMC
Coagulation factor XI [8] = target: T1, Coagulation factor XI; assay: Inhibition of Factor XIa (unknown origin)
Plasma kallikrein [9] = target: T2, Plasma kallikrein; assay: Inhibition of Pka (unknown origin)

T1 sequence (P03951 19-387 limits assumed): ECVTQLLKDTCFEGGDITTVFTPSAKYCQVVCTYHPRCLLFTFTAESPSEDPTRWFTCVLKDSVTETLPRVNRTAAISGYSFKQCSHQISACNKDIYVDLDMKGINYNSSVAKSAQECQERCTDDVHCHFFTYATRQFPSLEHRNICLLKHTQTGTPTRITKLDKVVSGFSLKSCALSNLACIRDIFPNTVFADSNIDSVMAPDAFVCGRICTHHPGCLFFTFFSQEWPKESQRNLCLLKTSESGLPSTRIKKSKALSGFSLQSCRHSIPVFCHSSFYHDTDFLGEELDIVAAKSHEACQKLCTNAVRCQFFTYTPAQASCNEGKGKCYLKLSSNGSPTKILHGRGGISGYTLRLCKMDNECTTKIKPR
T1 sequence (P03951 388-625 limits assumed): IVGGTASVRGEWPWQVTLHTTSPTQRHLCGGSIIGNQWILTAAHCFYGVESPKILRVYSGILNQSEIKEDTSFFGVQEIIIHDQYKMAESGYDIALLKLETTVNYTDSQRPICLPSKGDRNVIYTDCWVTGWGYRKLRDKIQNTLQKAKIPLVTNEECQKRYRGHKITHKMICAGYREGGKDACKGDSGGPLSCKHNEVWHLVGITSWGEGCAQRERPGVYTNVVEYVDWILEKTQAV

Row | IC50 (Coagulation factor XI [1]) | IC50 (Plasma kallikrein [2]) | SMILES | also measured
1 | 1330 nM | 8130 nM | CCC(c1cn(-c2cnn(C(F)F)c2)nn1)n1cc(OC)c(-c2cc(Cl)ccc2-n2cc(Cl)nn2)cc1=O (stereo unspecified) | 
2 | 21.4 nM | 683 nM | COc1cn(C(Cc2ccccc2)c2cn(-c3cn[nH]c3)nn2)c(=O)cc1-c1cc(Cl)ccc1-n1cc(Cl)nn1 (stereo unspecified) | EC2 (Plasma [3]): >100 µM; EC1.5 (Plasma [4]): 2.64 µM
3 | 161 nM | 1970 nM | COC(=O)c1ccc(-n2cc(Cn3cc(OC)c(-c4cc(Cl)ccc4-n4cc(Cl)nn4)cc3=O)nn2)cc1 | 
4 | 1090 nM | 15800 nM | COc1cn(Cc2cn(-c3ccc(Cl)nc3C#N)nn2)c(=O)cc1-c1cc(Cl)ccc1-n1cc(Cl)nn1 | 
5 | 84.5 nM | 655 nM | CCC(c1cn(-c2ccc(C(=O)O)cc2)nn1)n1cc(OC)c(-c2cc(Cl)ccc2-n2cc(Cl)nn2)cc1=O (stereo unspecified) | IC50 (Coagulation factor X): 17400 nM; EC2 (Plasma [3]): >100 µM; IC50 (Trypsin): 93100 nM; EC1.5 (Plasma [4]): 25.4 µM
6 | 288 nM | 3740 nM | COc1cn(Cc2cn(-c3cnn(C)c3)nn2)c(=O)cc1-c1cc(Cl)ccc1-n1cc(Cl)nn1 | 
7 | 1660 nM | 11500 nM | COC(=O)c1ccccc1-n1cc(Cn2cc(OC)c(-c3cc(Cl)ccc3-n3cc(Cl)nn3)cc2=O)nn1 | 
8 | 2000 nM | 19700 nM | COC(=O)c1ncccc1-n1cc(Cn2cc(OC)c(-c3cc(Cl)ccc3-n3cc(Cl)nn3)cc2=O)nn1 | 
9 | 14600 nM | 87200 nM | CCC(c1cn(-c2cnn(C)c2)nn1)n1cnc(-c2cc(Cl)ccc2-n2cc(Cl)nn2)cc1=O (stereo unspecified) | 
10 | 30.9 nM | 501 nM | COc1cn(C(Cc2ccccc2)c2cn(-c3ccccc3)nn2)c(=O)cc1-c1cc(Cl)ccc1-n1cc(Cl)nn1 (stereo unspecified) | 
11 | 1600 nM | 2140 nM | CCC(c1cn(-c2cccc(C(=O)OC)c2)nn1)n1cc(OC)c(-c2cc(Cl)ccc2-n2cc(Cl)nn2)cc1=O (stereo unspecified) | 
12 | 0.38 nM | 59.2 nM | COc1cn([C@@H](Cc2ccccc2)c2cn(-c3ccc(C(=O)O)cc3)nn2)c(=O)cc1-c1cc(Cl)ccc1-n1cc(C(F)(F)F)nn1 | IC50 (Coagulation factor X): 31600 nM; EC2 (Plasma [3]): >100 µM; IC50 (Trypsin): 16500 nM; IC50 (Prothrombin): 51000 nM; Ratio IC50 (Homo sapiens [5]): > 10000; Ratio IC50 (Homo sapiens [6]): > 80000; EC1.5 (Plasma [4]): 0.55 µM; Ratio IC50 (Homo sapiens [7]): > 130000
13 | 2000 nM | 14200 nM | COc1cn(Cc2cn(-c3cc(Br)cnc3C#N)nn2)c(=O)cc1-c1cc(Cl)ccc1-n1cc(Cl)nn1 | 
14 | 6550 nM | 23400 nM | CCC(c1cn(-c2cn[nH]c2)nn1)n1cnc(-c2cc(Cl)ccc2-n2cc(Cl)nn2)cc1=O (stereo unspecified) | 
15 | 609 nM | 6520 nM | CCC(c1cn(-c2cnn(C)c2)nn1)n1cc(OC)c(-c2cc(Cl)ccc2-n2cc(Cl)nn2)cc1=O (stereo unspecified) | 
16 | 32 nM | 643 nM | CC[C@@H](c1cn(-c2ccc(C(=O)OC)cc2)nn1)n1cc(OC)c(-c2cc(Cl)ccc2-n2cc(Cl)nn2)cc1=O | IC50 (Coagulation factor X): 4200 nM; EC2 (Plasma [3]): >100 µM; IC50 (Trypsin): 82900 nM; IC50 (Prothrombin): 67700 nM; EC1.5 (Plasma [4]): 13.2 µM
17 | 23.2 nM | 900 nM | COc1cn(C(Cc2ccccc2)c2cn(-c3cn[nH]c3)nn2)c(=O)cc1-c1cc(Cl)ccc1-n1cc(C(F)(F)F)nn1 (stereo unspecified) | EC2 (Plasma [3]): >100 µM; EC1.5 (Plasma [4]): 1.57 µM
18 | 1.52 nM | 73.1 nM | COc1cn([C@@H](Cc2ccccc2)c2cn(-c3ccc(C(=O)O)cc3)nn2)c(=O)cc1-c1cc(Cl)ccc1-n1cc(Cl)nn1 | IC50 (Coagulation factor X): 46800 nM; EC2 (Plasma [3]): >100 µM; IC50 (Trypsin): 14100 nM; IC50 (Prothrombin): 24400 nM; Ratio IC50 (Homo sapiens [5]): > 9000; Ratio IC50 (Homo sapiens [6]): > 30000; EC1.5 (Plasma [4]): 0.75 µM; Ratio IC50 (Homo sapiens [7]): > 16000
19 |  |  | CCC(c1ccc2cc(C(=O)O)ccc2c1)n1cc(OC)c(-c2cc(Cl)ccc2-n2cc(C(F)(F)F)nn2)cc1=O (stereo unspecified) | IC50 (Coagulation factor XI [8]): 86.6 nM; IC50 (Plasma kallikrein [9]): 258 nM
20 | 38.7 nM | 832 nM | COc1cn(Cc2cn(-c3ccc(C(=O)O)cc3)nn2)c(=O)cc1-c1cc(Cl)ccc1-n1cc(Cl)nn1 | 
21 |  |  | CC[C@@H](C(=O)Nc1ccc(C(N)=O)c(F)c1)n1cc(OC)c(-c2cc(Cl)ccc2-n2cc(C(F)(F)F)nn2)cc1=O | IC50 (Coagulation factor X): 7210 nM; EC2 (Plasma [3]): >100 µM; IC50 (Trypsin): 4050 nM; IC50 (Prothrombin): 6270 nM; EC1.5 (Plasma [4]): 0.71 µM
22 | 102 nM | 2750 nM | COc1cn([C@H](Cc2ccccc2)c2cn(-c3ccc(C(=O)O)cc3)nn2)c(=O)cc1-c1cc(Cl)ccc1-n1cc(C(F)(F)F)nn1 | IC50 (Coagulation factor X): > 33000 nM; EC2 (Plasma [3]): >100 µM; IC50 (Trypsin): 88200 nM; IC50 (Prothrombin): > 33000 nM; EC1.5 (Plasma [4]): 26.9 µM
23 | 1020 nM | 11100 nM | COc1cn(Cc2cn(-c3ccc(Cl)nc3C)nn2)c(=O)cc1-c1cc(Cl)ccc1-n1cc(Cl)nn1 | 

Row | IC50 (Coagulation factor XI [1]) | IC50 (Plasma kallikrein [2]) | SMILES | also measured
24 | 96.3 nM | 1870 nM | COc1cn([C@H](Cc2ccccc2)c2cn(-c3ccc(C(=O)O)cc3)nn2)c(=O)cc1-c1cc(Cl)ccc1-n1cc(Cl)nn1 | IC50 (Coagulation factor X): > 100000 nM; EC2 (Plasma [3]): >100 µM; IC50 (Trypsin): > 100000 nM; IC50 (Prothrombin): 46900 nM; EC1.5 (Plasma [4]): 29 µM
25 | 917 nM | 15800 nM | COc1ccc(-n2cc(Cn3cc(OC)c(-c4cc(Cl)ccc4-n4cc(Cl)nn4)cc3=O)nn2)c(C)n1 | 
26 | 373 nM | 1490 nM | CCC(c1cn(-c2ccc(C(=O)OC)cc2)nn1)n1cc(OC)c(-c2cc(Cl)ccc2-n2cc(Cl)nn2)cc1=O (stereo unspecified) | 
27 | 2.26 nM | 141 nM | COc1cn(C(Cc2ccccc2)c2cn(-c3ccc(C(=O)O)cc3)nn2)c(=O)cc1-c1cc(Cl)ccc1-n1cc(Cl)nn1 (stereo unspecified) | IC50 (Coagulation factor X): 48200 nM; EC2 (Plasma [3]): >100 µM; IC50 (Trypsin): 26100 nM; IC50 (Prothrombin): 42000 nM; EC1.5 (Plasma [4]): 1.41 µM
28 | 1960 nM | 4840 nM | CCC(c1cn(-c2ccccc2C(=O)OC)nn1)n1cc(OC)c(-c2cc(Cl)ccc2-n2cc(Cl)nn2)cc1=O (stereo unspecified) | 
29 | 535 nM | 2590 nM | CCC(c1cn(-c2ccccc2)nn1)n1cc(OC)c(-c2cc(Cl)ccc2-n2cc(Cl)nn2)cc1=O (stereo unspecified) | 
30 | 1100 nM | 7850 nM | CC[C@H](c1cn(-c2ccc(C(=O)OC)cc2)nn1)n1cc(OC)c(-c2cc(Cl)ccc2-n2cc(Cl)nn2)cc1=O | IC50 (Coagulation factor X): 101000 nM; EC2 (Plasma [3]): >100 µM; IC50 (Trypsin): > 100000 nM; EC1.5 (Plasma [4]): 392 µM
31 | 1240 nM | 14400 nM | COc1cn(Cc2cn(-c3cccnc3C)nn2)c(=O)cc1-c1cc(Cl)ccc1-n1cc(Cl)nn1 | 
32 | 519 nM | 1060 nM | COC(=O)c1cccc(-n2cc(Cn3cc(OC)c(-c4cc(Cl)ccc4-n4cc(Cl)nn4)cc3=O)nn2)c1 | 
33 | 38.3 nM | 643 nM | COC(=O)c1ccc(-n2cc(C(Cc3ccccc3)n3cc(OC)c(-c4cc(Cl)ccc4-n4cc(C(F)(F)F)nn4)cc3=O)nn2)cc1 (stereo unspecified) | 
34 | 186 nM | 2060 nM | COc1cn(Cc2cn(-c3cn[nH]c3)nn2)c(=O)cc1-c1cc(Cl)ccc1-n1cc(Cl)nn1 | 
35 | 27 nM | 522 nM | COC(=O)c1ccc(-n2cc(C(Cc3ccccc3)n3cc(OC)c(-c4cc(Cl)ccc4-n4cc(Cl)nn4)cc3=O)nn2)cc1 (stereo unspecified) | 
36 | 379 nM | 6800 nM | COc1cn(Cc2cn(-c3cccnc3C(=O)O)nn2)c(=O)cc1-c1cc(Cl)ccc1-n1cc(Cl)nn1 | 
37 | 78.1 nM | 766 nM | COc1cn(Cc2cn(-c3ccccc3)nn2)c(=O)cc1-c1cc(Cl)ccc1-n1cc(Cl)nn1 | 
38 | 6340 nM | 47200 nM | CCC(c1cn(-c2ccccc2)nn1)n1cnc(-c2cc(Cl)ccc2-n2cc(Cl)nn2)cc1=O (stereo unspecified) | 
39 | 78.7 nM | 412 nM | COc1cn(Cc2cn(-c3cccc(C(=O)O)c3)nn2)c(=O)cc1-c1cc(Cl)ccc1-n1cc(Cl)nn1 | 
40 | 272 nM | 11600 nM | COc1cn(Cc2cn(-c3ccccc3C(=O)O)nn2)c(=O)cc1-c1cc(Cl)ccc1-n1cc(Cl)nn1 | 
41 | 497 nM | 9800 nM | CCC(c1cn(-c2ccccc2C(=O)O)nn1)n1cc(OC)c(-c2cc(Cl)ccc2-n2cc(Cl)nn2)cc1=O (stereo unspecified) | 
42 | 1.31 nM | 112 nM | COc1cn(C(Cc2ccccc2)c2cn(-c3ccc(C(=O)O)cc3)nn2)c(=O)cc1-c1cc(Cl)ccc1-n1cc(C(F)(F)F)nn1 (stereo unspecified) | IC50 (Coagulation factor X): 41200 nM; EC2 (Plasma [3]): >100 µM; IC50 (Trypsin): 14200 nM; IC50 (Prothrombin): 53700 nM; EC1.5 (Plasma [4]): 0.81 µM
43 | 30.9 nM | 746 nM | COc1cn(C(Cc2ccccc2)c2cn(-c3ccccc3)nn2)c(=O)cc1-c1cc(Cl)ccc1-n1cc(C(F)(F)F)nn1 (stereo unspecified) | 
44 | 379 nM | 2510 nM | CCC(c1cn(-c2cn[nH]c2)nn1)n1cc(OC)c(-c2cc(Cl)ccc2-n2cc(Cl)nn2)cc1=O (stereo unspecified) | 
45 | 259 nM | 822 nM | CCC(c1cn(-c2cccc(C(=O)O)c2)nn1)n1cc(OC)c(-c2cc(Cl)ccc2-n2cc(Cl)nn2)cc1=O (stereo unspecified) | 

— ChEMBL document CHEMBL6087428, “Discovery of potent and selective factor XIa inhibitors incorporating triazole-based benzoic acid as novel P2' fragments: Molecular dynamics simulations and anticoagulant activity” (Eur J Med Chem, 2025)
